Results reported in PubChem BioAssay AID1963829 (Molecular Pharmacology Branch, DTP, NCI, 2024).

Test system: 935938-334-R-J1-PDC complex spheroid viability
Assay: Anticancer human tumor 935938-334-R-J1-PDC patient-derived small intestine adenocarcinoma cell line growth inhibition [POLQ]
Conditions: for IC50: curve of first compound; for viability, T/C: stronger effect = lower value
Summary of the method: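 Patient-derived tumour cells were co-cultured with HUVEC and mesenchymal stem cells as multicellular spheroids at 37 °C. They were treated with POLQ inhibitors (novobiocin, ART-558, RP6685) alone or combined with other agents. Top concentrations were at or near clinical Cmax (otherwise 10 microM; SN-38 at 1 microM), decreasing in half-log steps.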
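Further: spheroids exposed to drugs for seven days before viability read.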
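Wherever viability, T/C is given: 100% = DMSO vehicle control wells.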

How did the IC50 (second compound 0.0316 µM) turn out when `CC(=O)O[C@H]1C(=O)[C@@]2(C)[C@H]([C@H](OC(=O)c3ccccc3)[C@]3(O)C[C@H](OC(=O)[C@H](O)[C@@H](NC(=O)c4ccccc4)c4ccccc4)C(C)=C1C3(C)C)[C@]1(OC(C)=O)CO[C@@H]1C[C@@H]2O` + COC1C(OC(N)=O)C(O)C(Oc2ccc3c(O)c(NC(=O)c4ccc(O)c(CC=C(C)C)c4)c(=O)oc3c2C)OC1(C)C was run?
The IC50 was under 0.00949 µM.

And the IC50 (second compound 0.1 µM)?
The IC50 was under 0.00949 µM.

What about the IC50 (second compound 0.316 µM) of the same compound?
Its IC50 is under 0.00949 µM.

What about the IC50 (second compound 1 µM) of the same compound?
The IC50 was under 0.00949 µM.

What about the IC50 (second compound 3.16 µM) of the same compound?
The IC50 was under 0.00949 µM.

And the IC50 (second compound 10 µM)?
Its IC50 is under 0.00949 µM.

And the viability, T/C (second compound 0.0316 µM, first compound 0.00949 µM)?
The viability, T/C was 33.5%.

What about the viability, T/C (second compound 0.0316 µM, first compound 0.03 µM) of the same compound?
Its viability, T/C is 21.4%.

And the viability, T/C (second compound 0.0316 µM, first compound 0.0949 µM)?
Its viability, T/C is 14.8%.

What about the viability, T/C (second compound 0.0316 µM, first compound 0.3 µM) of the same compound?
Its viability, T/C is 16.4%.

What about the viability, T/C (second compound 0.0316 µM, first compound 0.949 µM) of the same compound?
The viability, T/C was 16.6%.

And the viability, T/C (second compound 0.0316 µM, first compound 3 µM)?
Its viability, T/C is 19.3%.

What about the viability, T/C (second compound 0.1 µM, first compound 0.00949 µM) of the same compound?
The viability, T/C was 35.7%.

What about the viability, T/C (second compound 0.1 µM, first compound 0.03 µM) of the same compound?
Its viability, T/C is 21.5%.

What about the viability, T/C (second compound 0.1 µM, first compound 0.0949 µM) of the same compound?
Its viability, T/C is 16.9%.

What about the viability, T/C (second compound 0.1 µM, first compound 0.3 µM) of the same compound?
Its viability, T/C is 17.5%.

What about the viability, T/C (second compound 0.1 µM, first compound 0.949 µM) of the same compound?
The viability, T/C was 16.5%.

What about the viability, T/C (second compound 0.1 µM, first compound 3 µM) of the same compound?
The viability, T/C was 18.1%.

What about the viability, T/C (second compound 0.316 µM, first compound 0.00949 µM) of the same compound?
The viability, T/C was 37.9%.

What about the viability, T/C (second compound 0.316 µM, first compound 0.03 µM) of the same compound?
Its viability, T/C is 18.4%.

What about the viability, T/C (second compound 0.316 µM, first compound 0.0949 µM) of the same compound?
Its viability, T/C is 16.6%.

And the viability, T/C (second compound 0.316 µM, first compound 0.3 µM)?
The viability, T/C was 13.8%.

What about the viability, T/C (second compound 0.316 µM, first compound 0.949 µM) of the same compound?
The viability, T/C was 17.9%.

And the viability, T/C (second compound 0.316 µM, first compound 3 µM)?
The viability, T/C was 18.2%.

What about the viability, T/C (second compound 1 µM, first compound 0.00949 µM) of the same compound?
The viability, T/C was 34.6%.

What about the viability, T/C (second compound 1 µM, first compound 0.03 µM) of the same compound?
The viability, T/C was 19.5%.

And the viability, T/C (second compound 1 µM, first compound 0.0949 µM)?
Its viability, T/C is 17.4%.

What about the viability, T/C (second compound 1 µM, first compound 0.3 µM) of the same compound?
The viability, T/C was 17.2%.

And the viability, T/C (second compound 1 µM, first compound 0.949 µM)?
Its viability, T/C is 16.2%.

What about the viability, T/C (second compound 1 µM, first compound 3 µM) of the same compound?
Its viability, T/C is 16.6%.

And the viability, T/C (second compound 3.16 µM, first compound 0.00949 µM)?
Its viability, T/C is 32.8%.

What about the viability, T/C (second compound 3.16 µM, first compound 0.03 µM) of the same compound?
Its viability, T/C is 21.3%.

And the viability, T/C (second compound 3.16 µM, first compound 0.0949 µM)?
Its viability, T/C is 14.9%.

And the viability, T/C (second compound 3.16 µM, first compound 0.3 µM)?
Its viability, T/C is 18.2%.

And the viability, T/C (second compound 3.16 µM, first compound 0.949 µM)?
Its viability, T/C is 17.5%.

What about the viability, T/C (second compound 3.16 µM, first compound 3 µM) of the same compound?
Its viability, T/C is 18.4%.

What about the viability, T/C (second compound 10 µM, first compound 0.00949 µM) of the same compound?
The viability, T/C was 36.6%.

And the viability, T/C (second compound 10 µM, first compound 0.03 µM)?
The viability, T/C was 19.9%.

What about the viability, T/C (second compound 10 µM, first compound 0.0949 µM) of the same compound?
The viability, T/C was 14.4%.

What about the viability, T/C (second compound 10 µM, first compound 0.3 µM) of the same compound?
The viability, T/C was 16.6%.

What about the viability, T/C (second compound 10 µM, first compound 0.949 µM) of the same compound?
Its viability, T/C is 14.6%.

What about the viability, T/C (second compound 10 µM, first compound 3 µM) of the same compound?
The viability, T/C was 16.4%.

With `COc1ccc([C@@H](O)c2cc(-c3ncnc4cc(N5CCOCC5)ccc34)c(F)cc2Cl)nn1` + Cc1cccc(N(C)C(=O)C2C(O)CCN2c2nc(C)cc(C(F)(F)F)c2C#N)c1 as the compound, how does the IC50 (second compound 0.0316 µM) read?
Its IC50 is 6.02 µM.

What about the IC50 (second compound 0.1 µM) of the same compound?
Its IC50 is 4.28 µM.

And the IC50 (second compound 0.316 µM)?
The IC50 was 3.2 µM.

And the IC50 (second compound 1 µM)?
The IC50 was 6.41 µM.

And the IC50 (second compound 3.16 µM)?
Its IC50 is 3.7 µM.

What about the IC50 (second compound 10 µM) of the same compound?
Its IC50 is 2.58 µM.

What about the viability, T/C (second compound 0.0316 µM, first compound 0.0316 µM) of the same compound?
Its viability, T/C is 79.3%.

What about the viability, T/C (second compound 0.0316 µM, first compound 0.1 µM) of the same compound?
The viability, T/C was 117%.

What about the viability, T/C (second compound 0.0316 µM, first compound 0.316 µM) of the same compound?
The viability, T/C was 76.8%.

And the viability, T/C (second compound 0.0316 µM, first compound 1 µM)?
The viability, T/C was 79.1%.

And the viability, T/C (second compound 0.0316 µM, first compound 3.16 µM)?
The viability, T/C was 63.8%.

What about the viability, T/C (second compound 0.0316 µM, first compound 10 µM) of the same compound?
Its viability, T/C is 39.9%.

And the viability, T/C (second compound 0.1 µM, first compound 0.0316 µM)?
Its viability, T/C is 75.3%.

What about the viability, T/C (second compound 0.1 µM, first compound 0.1 µM) of the same compound?
Its viability, T/C is 98.1%.

And the viability, T/C (second compound 0.1 µM, first compound 0.316 µM)?
The viability, T/C was 69.6%.

What about the viability, T/C (second compound 0.1 µM, first compound 1 µM) of the same compound?
The viability, T/C was 60.3%.

And the viability, T/C (second compound 0.1 µM, first compound 3.16 µM)?
The viability, T/C was 61.4%.

What about the viability, T/C (second compound 0.1 µM, first compound 10 µM) of the same compound?
The viability, T/C was 34.5%.

And the viability, T/C (second compound 0.316 µM, first compound 0.0316 µM)?
The viability, T/C was 116%.

And the viability, T/C (second compound 0.316 µM, first compound 0.1 µM)?
The viability, T/C was 98.9%.

And the viability, T/C (second compound 0.316 µM, first compound 0.316 µM)?
Its viability, T/C is 97.6%.

And the viability, T/C (second compound 0.316 µM, first compound 1 µM)?
Its viability, T/C is 75.8%.

What about the viability, T/C (second compound 0.316 µM, first compound 3.16 µM) of the same compound?
The viability, T/C was 48.2%.

What about the viability, T/C (second compound 0.316 µM, first compound 10 µM) of the same compound?
The viability, T/C was 30.3%.

What about the viability, T/C (second compound 1 µM, first compound 0.0316 µM) of the same compound?
The viability, T/C was 90.6%.

And the viability, T/C (second compound 1 µM, first compound 0.1 µM)?
The viability, T/C was 80.2%.

What about the viability, T/C (second compound 1 µM, first compound 0.316 µM) of the same compound?
The viability, T/C was 83.4%.

And the viability, T/C (second compound 1 µM, first compound 1 µM)?
Its viability, T/C is 97.6%.

And the viability, T/C (second compound 1 µM, first compound 3.16 µM)?
Its viability, T/C is 72.7%.

And the viability, T/C (second compound 1 µM, first compound 10 µM)?
Its viability, T/C is 35.8%.

And the viability, T/C (second compound 3.16 µM, first compound 0.0316 µM)?
The viability, T/C was 101%.

What about the viability, T/C (second compound 3.16 µM, first compound 0.1 µM) of the same compound?
The viability, T/C was 85%.

What about the viability, T/C (second compound 3.16 µM, first compound 0.316 µM) of the same compound?
Its viability, T/C is 81.8%.

What about the viability, T/C (second compound 3.16 µM, first compound 1 µM) of the same compound?
The viability, T/C was 67.2%.

What about the viability, T/C (second compound 3.16 µM, first compound 3.16 µM) of the same compound?
Its viability, T/C is 55%.

And the viability, T/C (second compound 3.16 µM, first compound 10 µM)?
The viability, T/C was 33.1%.

What about the viability, T/C (second compound 10 µM, first compound 0.0316 µM) of the same compound?
Its viability, T/C is 103%.

And the viability, T/C (second compound 10 µM, first compound 0.1 µM)?
Its viability, T/C is 80.8%.

And the viability, T/C (second compound 10 µM, first compound 0.316 µM)?
The viability, T/C was 85.6%.

And the viability, T/C (second compound 10 µM, first compound 1 µM)?
The viability, T/C was 59.9%.

What about the viability, T/C (second compound 10 µM, first compound 3.16 µM) of the same compound?
The viability, T/C was 48.9%.

What about the viability, T/C (second compound 10 µM, first compound 10 µM) of the same compound?
Its viability, T/C is 28.4%.
